In paper PMC5988755, “First characterization of a microsporidial triosephosphate isomerase and the biochemical mechanisms of its inactivation to propose a new druggable target” (Scientific Reports, 2018):

Assays:
[1] = target: T1, EiTIM (triosephosphate isomerase of E. intestinalis) (Encephalitozoon intestinalis, UniProt E0SA87); experiment: residual activity after incubation, alpha-GDH coupled assay (NADH, […] nm); format: biochemical; conditions: read-out: 50% inactivation
T1 construct: gene Eint_110100; full length, synthetic codon-optimised gene (silent A479G) in pET-3aHisTEV, E. coli BL21(DE3)pLysS; N-terminal His-tag removed with TEV protease; homodimer
T1 sequence (E0SA87 1-242): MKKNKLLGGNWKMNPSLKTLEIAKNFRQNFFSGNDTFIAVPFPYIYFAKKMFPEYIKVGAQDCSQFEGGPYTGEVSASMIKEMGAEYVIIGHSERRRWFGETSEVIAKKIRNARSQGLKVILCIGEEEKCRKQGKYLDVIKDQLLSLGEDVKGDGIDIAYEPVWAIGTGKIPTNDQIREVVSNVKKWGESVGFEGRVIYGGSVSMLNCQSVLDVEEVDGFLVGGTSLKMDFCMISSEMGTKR

[2] = target: T1, EiTIM (triosephosphate isomerase of E. intestinalis); experiment: thermal denaturation by CD at […] nm of derivatized enzyme; format: binding; conditions: covalent; 0.5 mM compound, 2 h at 37 °C, excess removed; untreated control Tm 52.8 ± 1.5 °C
[3] = target: T1, EiTIM (triosephosphate isomerase of E. intestinalis); experiment: residual activity after incubation, alpha-GDH coupled assay (NADH, […] nm); format: biochemical; conditions: covalent; 0.5 mM compound, 2 h at 37 °C; residual activity relative to untreated control; 3 Cys derivatized per subunit
[4] = target: T1, EiTIM (triosephosphate isomerase of E. intestinalis); experiment: as above; format: biochemical; conditions: covalent (Cys derivatization suggested), 0.5 mg/mL enzyme, 2 h at 37 °C, drug 0-50 μM
purified protein = substrate: O=C[C@H](O)COP(=O)(O)O; experiment: purified protein; conditions: GAP to DHAP direction, 25 °C, 0.2 mM NADH, 0.9 U alpha-GDH, GAP 0.2-10 mM

Molecule `CC(=C(CCOC(=O)C(C)C)SSC(CCOC(=O)C(C)C)=C(C)N(C=O)Cc1cnc(C)nc1N)N(C=O)Cc1cnc(C)nc1N` (stereo in doubt) [sulbutiamine] has an IC50 [1] of 2.5 µM.

For `O=C(O)c1cc(SSc2ccc([N+](=O)[O-])c(C(=O)O)c2)ccc1[N+](=O)[O-]` [DTNB, 5,5′-dithiobis(2-nitrobenzoic acid)], the IC50 [1] was 25 µM.

`CSS(C)(=O)=O` [MMTS] was tested, and the “Tm (°C)^*” value [2] was 49.8 ± 2.1 °C and the “Activity (%)^*” value [3] was 17.3 ± 5.5%.

In the case of `CS(=O)(=O)SCCS(=O)(=O)O` [MTSES, sodium (2-sulfonatoethyl) methanethiosulfonate], the “Tm (°C)^*” value [2] is reported as 48.6 ± 1.9 °C and the “Activity (%)^*” value [3] is reported as 2.4 ± 1.1%.

In the case of `COc1ccc2[nH]c([S+]([O-])Cc3ncc(C)c(OC)c3C)nc2c1` (centres unmarked) [omeprazole], the 50% inactivation ([4]; omeprazole pre-activated with acid (HCl, 3 h)) is reported as “sulbutiamine was two- and three-fold more effective than rabeprazole and omeprazole, respectively”.

With `COCCCOc1ccnc(C[S+]([O-])c2nc3ccccc3[nH]2)c1C` (centres unmarked) [rabeprazole] the 50% inactivation [4] was “sulbutiamine was two- and three-fold more effective than rabeprazole and omeprazole, respectively”.

B1: EiTIM (triosephosphate isomerase of E. intestinalis) (Encephalitozoon intestinalis ATCC 50506) (protein)
chain: T1 sequence (E0SA87 1-242)
With B1 the Km (purified protein) was 830 ± 200 µM, the kcat (purified protein) was 1680 s⁻¹ and the kcat/Km (purified protein) was 2e+06 M⁻¹ s⁻¹.
